Experimental data reported in patent US6114334A, “Piperazine derivatives as therapeutic agents” (Knoll Aktiengesellschaft, priority 1995, dated 2000).

Assays:
α1-adrenoceptors = experiment: inhibition of 7-methoxy-[3H]prazosin binding to α1-adrenoceptors in vitro; set-up: species or system rat (male Charles River CD, whole cortical tissue); conditions: rat whole cortex, 30 min; for Ki: 7-methoxy-[3H]prazosin 0.1 nM, 30° C.
Procedure, shortened: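 Male CD rat cortical membranes in 50 mM Tris-HCl pH 7.6 were incubated 30 min at 30 °C with 7-methoxy-[3H]prazosin (0.1 nM as added), with 5 μM phentolamine (as added) defining non-specific binding, then filtered and counted. Compounds were tested at 10^-6 M for % displacement or at 10^-11–10^-3 M for IC50, and Ki was derived from IC50, ligand concentration and KD.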

D2 dopamine receptors = D2 dopamine receptors (Rattus norvegicus, UniProt P61169); experiment: inhibition of tritiated (S)-sulpiride binding to D2 dopamine receptors in vitro; set-up: species or system rat (male Charles River CD, striatal tissue); conditions: rat striatum, tritiated (S)-sulpiride 1 nM, 4° C., 40 min
α2D-adrenoceptors = target: T1, α2D-adrenoceptors (Rattus norvegicus, UniProt P22909); experiment: inhibition of tritiated idazoxan binding to α2D-adrenoceptors in vitro; set-up: species or system rat (male Charles River CD, frontal cortical tissue); conditions: rat frontal cortex; for inhibition at 1 µM: 10^-6 M, [3H]idazoxan, read-out: % displacement at 10^-6 M, α2D; for Ki: [3H]idazoxan 1 nM, 0° C., 75 min
T1 sequence (P22909 1-465): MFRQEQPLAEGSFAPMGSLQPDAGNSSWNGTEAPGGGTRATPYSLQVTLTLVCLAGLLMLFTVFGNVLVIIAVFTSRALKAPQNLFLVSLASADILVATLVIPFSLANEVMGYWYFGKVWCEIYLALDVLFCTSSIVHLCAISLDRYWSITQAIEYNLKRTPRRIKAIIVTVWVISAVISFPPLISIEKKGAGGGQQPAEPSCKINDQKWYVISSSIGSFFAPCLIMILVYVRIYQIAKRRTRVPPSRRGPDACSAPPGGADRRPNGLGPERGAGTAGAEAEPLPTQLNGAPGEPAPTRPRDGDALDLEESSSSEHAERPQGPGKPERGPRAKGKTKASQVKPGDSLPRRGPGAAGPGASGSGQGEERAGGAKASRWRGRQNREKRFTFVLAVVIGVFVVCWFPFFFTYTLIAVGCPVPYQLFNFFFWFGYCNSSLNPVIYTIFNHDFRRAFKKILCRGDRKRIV

α2A-adrenoceptors = target: T2, α2A-adrenoceptors (Homo sapiens, UniProt P08913); experiment: inhibition of tritiated RX 821002 binding to α2A-adrenoceptors in vitro; set-up: species or system human (cerebral cortex post-mortem); conditions: human cerebral cortex; for inhibition at 1 µM: 10^-6 M, [3H]RX 821002, read-out: % displacement at 10^-6 M, α2A
T2 construct: Human cerebral cortex obtained at post-mortem; from tissue; host or cells: human cerebral cortex, post-mortem
T2 sequence (P08913 1-465): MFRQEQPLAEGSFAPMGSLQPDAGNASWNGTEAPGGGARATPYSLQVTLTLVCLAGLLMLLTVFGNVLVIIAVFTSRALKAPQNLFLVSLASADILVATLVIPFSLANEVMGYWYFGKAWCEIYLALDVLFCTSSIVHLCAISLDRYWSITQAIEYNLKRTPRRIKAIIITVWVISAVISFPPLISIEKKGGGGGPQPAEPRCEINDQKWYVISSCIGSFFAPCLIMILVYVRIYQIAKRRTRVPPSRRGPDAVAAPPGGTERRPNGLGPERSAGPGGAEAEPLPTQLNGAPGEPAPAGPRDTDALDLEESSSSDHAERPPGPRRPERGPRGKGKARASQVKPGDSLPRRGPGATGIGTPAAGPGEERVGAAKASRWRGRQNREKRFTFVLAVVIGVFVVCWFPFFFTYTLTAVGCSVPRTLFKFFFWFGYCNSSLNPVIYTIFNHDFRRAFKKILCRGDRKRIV
Protocol: Human cerebral cortex obtained at post-mortem was homogenised in ice-cold 0.25M sucrose (1:30 w/v) and centrifuged at 1,000 g at 4° C. for 12 minutes. The supernatant was stored on ice and the pellet was rehomogenised in 0.25M sucrose (1:15 w/v) and centrifuged at 850 g at 4° C. for 12 minutes. Combined supernatants were diluted with 5 mM Tris-HCl (pH 7.5) containing 5 mM ethylenediamine tetraacetic acid (EDTA), readjusted to pH 7.5 (at 25° C.) with 1M sodium hydroxide to 1:80 w/v, and centrifuged at 11,000 g at 4° C. for 10 minutes. The resulting pellet was resuspended in 50 mM Tris-HCl (pH 7.5) containing 5.68 mM L-ascorbic acid and 0.5 mM EDTA, readjusted to pH 7.5 (at 25° C.) with 1M sodium hydroxide to 1:80 w/v, and centrifuged at 11,000 g for 10 minutes. The pellet was stored at -80° C. On the day of the assay the pellet was thawed, resuspended in 50 mM Tris-HCl (pH 7.5) containing 5.68 mM L-ascorbic acid and 5 mM EDTA to 1:80 w/v and centrifuged at 11,000 g for 10 minutes. The final pellet was resuspended in 50 mM Tris-HCl (pH 7.5) containing 5.68 mM L-ascorbic acid and 5 mM EDTA (equivalent to 25 mg wet weight of tissue/ml).
Aliquots (400 μl; equivalent to 10 mg wet weight of tissue/tube) of this suspension were added to tubes containing the ligand (50 μl; 0.2 nM) and distilled water (50 μl; total binding) or phentolamine (50 μl; 50 μM; non-specific binding) or test compound (50 μl; at a single concentration of 10^-6 M or at 10 concentrations ranging from 10^-11 -10^-3 M). The ligand was tritiated RX 821002 (2-(2-methoxy-1,4-[6,7(n)-^3 H]benzodioxan-2-yl)-2-imidazoline) and the mixture was incubated at 0° C. for 75 minutes before the incubation was terminated by rapid filtration.
The filters were washed with ice-cold Tris-HCl buffer and dried. The filters were punched out into vials, scintillation fluid added and radioactivity determined by liquid scintillation counting. The percentage displacement of specific binding of the tritiated ligand was calculated for the single concentration (10^-6 M) of test compound. Displacement curves were then produced for those compounds which displaced ≥50% of specific binding of the tritiated ligand at 10^-6 M using a range of concentrations of the compound. The concentration which gave 50% inhibition of specific binding (IC50) was obtained from the curve. The inhibition coefficient Ki was then calculated using the formula [formula] in which [ligand] is the concentration of the tritiated ligand used and KD is the equilibrium dissociation constant for the ligand.

5-HT1A receptors = target: T3, 5-HT1A receptors (Rattus norvegicus, UniProt P19327); experiment: inhibition of [3H]8-OH-DPAT binding to 5-HT1A receptors in vitro; set-up: species or system rat (male Sprague-Dawley, hippocampal tissue); conditions: rat hippocampus; for Ki: [3H]8-OH-DPAT 2 nM, 25° C., 30 min
T3 sequence (P19327 1-422): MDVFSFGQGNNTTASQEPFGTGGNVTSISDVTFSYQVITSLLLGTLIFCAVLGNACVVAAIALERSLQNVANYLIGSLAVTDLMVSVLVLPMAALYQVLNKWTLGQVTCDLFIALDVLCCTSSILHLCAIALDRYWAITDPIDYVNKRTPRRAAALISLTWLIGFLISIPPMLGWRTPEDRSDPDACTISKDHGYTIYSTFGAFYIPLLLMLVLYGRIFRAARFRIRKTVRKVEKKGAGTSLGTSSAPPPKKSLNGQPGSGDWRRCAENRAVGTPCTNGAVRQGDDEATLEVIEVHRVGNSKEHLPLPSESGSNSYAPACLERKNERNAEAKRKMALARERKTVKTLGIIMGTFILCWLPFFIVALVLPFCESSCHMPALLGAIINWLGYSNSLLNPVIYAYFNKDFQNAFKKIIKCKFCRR

Chain of D2 dopamine receptors (P61169 whole entry): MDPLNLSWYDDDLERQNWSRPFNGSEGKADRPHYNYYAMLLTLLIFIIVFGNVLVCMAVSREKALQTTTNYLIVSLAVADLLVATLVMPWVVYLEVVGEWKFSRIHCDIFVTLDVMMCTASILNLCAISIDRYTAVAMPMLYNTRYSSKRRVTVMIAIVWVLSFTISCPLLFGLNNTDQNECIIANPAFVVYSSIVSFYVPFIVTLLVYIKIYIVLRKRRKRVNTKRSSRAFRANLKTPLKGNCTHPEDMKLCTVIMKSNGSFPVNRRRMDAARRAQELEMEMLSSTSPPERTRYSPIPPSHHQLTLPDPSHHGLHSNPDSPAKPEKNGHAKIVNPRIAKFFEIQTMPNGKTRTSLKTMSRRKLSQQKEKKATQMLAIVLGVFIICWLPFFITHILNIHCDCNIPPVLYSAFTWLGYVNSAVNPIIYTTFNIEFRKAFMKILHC

| SMILES | Ki (α1-adrenoceptors) [nM] | Ki (D2 dopamine receptors) [nM] | inhibition at 1 µM (α2D-adrenoceptors) [%] | inhibition at 1 µM (α2A-adrenoceptors) [%] | Ki (5-HT1A receptors) [nM] | Ki (α2D-adrenoceptors) [nM] | % displacement at 10^-6 M, α1 (α1-adrenoceptors; 10^-6 M, 7-methoxy-[3H]prazosin, 1 µM) [%] | inhibition at 1 µM (5-HT1A receptors; 10^-6 M, [3H]8-OH-DPAT, read-out: % displacement at 10^-6 M, 5-HT1A) [%] | Ki (α2A-adrenoceptors; [3H]RX 821002 0.2 nM, 0° C., 75 min) [nM] |
| --- | --- | --- | --- | --- | --- | --- | --- | --- | --- |
| Nc1c(CN2CCN(c3cccc4c3OCCO4)CC2)c(C2CC2)nn1-c1ncccn1 [Example 35, 5-Amino-4-[4-(1,4-benzodioxan-5-yl)piperazin-1-ylmethyl]-3-cyclopropyl-1-(2-pyrimidinyl)pyrazole] | 82 | 184 | 96 | 100 | 2.3 |  |  |  |  |
| COc1ccccc1N1CCN(CC2(C)N=C(c3ccccc3)NC2=O)CC1 (stereo not shown) [Example 37, 4-[4-(2-methoxyphenyl)piperazin-1-ylmethyl]-4-methyl-2-phenyl-2-imidazolin-5-one] | 271 | 268 |  | 69 | 93 | 112 |  |  |  |
| Nc1c(CN2CCN(c3cccc4c3OCCO4)CC2)c(C2CCC2)nn1-c1ccccc1 [Example 29, 5-Amino-4-[4-(1,4-benzodioxan-5-yl)piperazin-1-ylmethyl]-3-cyclobutyl-1-phenylpyrazole] | 50 | > 500 | 96 | 100 | 34 |  |  |  |  |
| Cn1nc(C2CCCC2)c(CN2CCN(c3cccc4c3OCCO4)CC2)c1N [Example 31, 5-Amino-4-[4-(1,4-benzodioxan-5-yl)piperazin-1-ylmethyl]-3-cyclopentyl-1-methylpyrazole] | 45 | > 500 | 82 | 95 | 21 |  |  |  |  |
| CC1(CN2CCN(c3cccc(Cl)c3)CC2)N=C(c2ccccc2)NC1=O (stereo not shown) [Example 42, 4-[4-(3-Chlorophenyl)piperazin-1-ylmethyl]-4-methyl-2-phenyl-2-imidazolin-5-one] | > 500 | > 500 |  | 84 | 213 | 226 |  |  |  |
| Nc1c(CN2CCN(c3cccc4c3OCCO4)CC2)c(C2CC2)nn1-c1ccccc1Cl [Example 33, 5-Amino-4-[4-(1,4-benzodioxan-5-yl)piperazin-1-ylmethyl]-1-(2-chlorophenyl)-3-cyclopropylpyrazole] |  | > 500 | 96 | 100 |  |  | 94 | 98 |  |
| Cc1ccccc1N1CCN(CC2(C)N=C(c3ccccc3)NC2=O)CC1 (stereo not shown) [Example 43, 4-Methyl-4-[4-(2-methylphenyl)piperazin-1-ylmethyl]-2-phenyl-2-imidazolin-5-one] | > 500 | > 500 |  | 93 | 276 | 33 |  |  |  |
| Nc1c(CN2CCN(c3cccc4c3OCCO4)CC2)c(C2CC2)nn1-c1ccc(Cl)cc1 [Example 20, 5-Amino-4-[4-(1,4-benzodioxan-5-yl)piperazin-1-ylmethyl]-1-(4-chlorophenyl)-3-cyclopropylpyrazole] | 19 | 445 |  | 89 | 61 | 15 |  |  |  |
| CC1(CN2CCN(c3cccc4c3OCCO4)CC2)N=C(c2cccnc2)NC1=O (stereo not shown) [Example 40, 4-[4-(1,4-Benzodioxan-5-yl)piperazin-1-ylmethyl]-4-methyl-2-(3-pyridyl)-2-imidazolin-5-one] | > 500 | 315 |  | 69 | 19 | 220 |  |  |  |
| Nc1c(CN2CCN(c3cccc4c3OCCO4)CC2)c(C2CC2)nn1-c1ccccc1 [Example 10, 5-amino-4-[4-(1,4-benzodioxan-5-yl)piperazin-1-ylmethyl]-3-cyclopropyl-1-phenylpyrazole] | 31 | 374 |  |  | 25 | 162 |  |  | 2 |
| Nc1c(CN2CCN(c3cccc4c3OCCO4)CC2)c(-c2ccccc2)nn1-c1ccccc1 [Example 12, 5-Amino-4-[4-(1,4-benzodioxan-5-yl)piperazin-1-ylmethyl]-1,3-diphenylpyrazole] | 41 | > 500 |  | 99 | 19 | 192 |  |  |  |
| Nc1c(CN2CCN(c3cccc4c3OCCO4)CC2)c(C2CC2)nn1-c1ccccn1 [Example 16, 5-Amino-4-[4-(1,4-benzodioxan-5-yl)piperazin-1-ylmethyl]-3-cyclopropyl-1-(2-pyridyl)pyrazole] | 35 | 85 |  | 100 | 4.1 | 9.7 |  |  |  |
| Cc1ccccc1N1CCN(Cc2c(C3CC3)nn(-c3ccccc3)c2N)CC1 [Example 19, 5-Amino-3-cyclopropyl-4-[4-(2-methylphenyl)piperazin-1-ylmethyl]-1-phenylpyrazole] | 38 | > 500 |  | 100 | 256 | 4.9 |  |  |  |
| CC(C)(C)c1nn(-c2ccccc2)c(N)c1CN1CCN(c2cccc3c2OCCO3)CC1 [Example 22, 5-Amino-4-[4-(1,4-benzodioxan-5-yl)piperazin-1-ylmethyl]-3-tert-butyl-1-phenylpyrazole] | > 500 | > 500 |  | 66 | 29 | > 500 |  |  |  |
